In test [1] the test system is Cdc2 (Cdk1) tyrosine 15 phosphorylation in WiDr cells. In words: Cdc2 (Cdk1) tyrosine 15-phosphorylation-inhibitory effect in gemcitabine-treated WiDr cells (ELISA). In kind it is cell-based. To be noted: Homo sapiens, gemcitabine 100 nM 24 hours, then test compound with nocodazole 8 hours, read-out: Cdc2-Y15 Phosphorylation-Inhibitory Effect (WiDr, + gemcitabine) (EC50). The source says:
(§1) Pharmaceutical Text 2 (Method of Determining Drug Potency in Cells (Cdc2 (Cdk1) Tyrosine 15-Phosphorylation-Inhibitory Effect))
(§2) Fetal bovine serum (FBS) was obtained from Morgate; media RPMI1640 and DMEM were from Invitrogen; camptothecin was from Sigma; gemcitabine was from Nippon Eli Lilly; nocodazole and protease inhibitor cocktail were from Sigma; rabbit anti-Cdc2 antibody and mouse anti-Cdc2 antibody were from Santa Cruz Biotechnology; rabbit anti-tyrosine 15-phosphorylated Cdc2 antibody and horseradish peroxidase-labeled anti-mouse IgG antibody were from Cell Signaling Technology; sure blue reserve TMB peroxidase substrate was from Kirkegaard and Perry Laboratories.
(§3) Human non-small cell lung cancer cells (NCI-H1299) and human colon cancer cells (WiDr) were obtained from American Type Culture Collection (ATCC).
(§4) c) Method of Effect Determination:
In the method of using WiDr cells, the cells were suspended in DMEM containing 10% FBS, and the cell suspension was applied to a 96-well Nunclondelta-processed plastic plate in an amount of 2000 cells/100 μL/well, in which the cells were incubated overnight in 5% CO2-95% air at 37° C. Gemcitabine was dissolved in PBS, and diluted with DMEM containing 10% FBS, and then this was applied to the plate on which the cells had been previously sowed, in an amount of 50 μL/well in such a manner that the final concentration of gemcitabine could be 100 nM. Then, the cells were incubated for 24 hours at 37° C. in 5% CO2-95% air. The test compound was stepwise diluted with DMSO, then diluted with 1200 nM nocodazole-containing DMEM containing 10% FBS, and applied to the plate on which the gemcitabine-treated cells had been sowed, in an amount of 50 μL/well. The cells were incubated for 8 hours at 37° C. in 5% CO2-95% air, then the culture was removed, and a cytolytic buffer was added to the plate in an amount of 100 μL/well, shaken at 4° C. for 2 hours, then frozen at −80° C., and melted to give a cell solution. Cdc2 and tyrosine 15-phosphorylated Cdc2 in the cell solution were determined through ELISA, and the ratio of tyrosine 15-phosphorylated Cdc2 to Cdc2 was calculated to obtain the 50% phosphorylation-inhibitory concentration of the test compound to the cells (EC50, nM). Cdc2 was determined through ELISA as follows: A rabbit anti-Cdc2 antibody solution, which had been diluted 200-fold with 50 mM carbonate-bicarbonate buffer (pH 9.6), was applied to a 96-well maxisorp plastic plate in an amount of 50 μL/well, and statically kept overnight at 4° C. so as to fix the antibody on the plate. Next, this was washed three times with PBS, and 5% BSA/PBS was added thereto in an amount of 300 μL/well, and statically kept at room temperature for 2 hours, and then again washed three times with PBS. A mouse anti-Cdc2 antibody solution that had been diluted 100-fold with 1% BSA/TBS-T was added to it in an amount of 50 μL/well, and the cell solution was added thereto in an amount of 10 μL/well and statically kept overnight at 4° C. Next, this was washed three times with 0.1% BSA/TBS-T, and then a horseradish peroxidase-labeled anti-mouse IgG antibody solution that had been diluted 2000-fold with 1% BSA/TBS-T was added thereto in an amount of 70 μL/well, and statically kept at room temperature for 3 hours. Finally, this was washed five times with 0.1% BSA/TBS-T, then a substrate of sure blue reserve TMB peroxidase was added to it in an amount of 100 μL/well, and left for coloration in a dark place at room temperature for 15 minutes. Then, 1 M hydrochloric acid was added to it in an amount of 100 μL/well to stop the reaction, and this was analyzed through colorimetry. […]
(An ELISA detects its analyte on a solid surface through an enzyme-linked reagent.)

In test [2] the test system is Cdc2 (Cdk1) tyrosine 15 phosphorylation in NCI-H1299 cells. In words: Cdc2 (Cdk1) tyrosine 15-phosphorylation-inhibitory effect in camptothecin-treated NCI-H1299 cells (ELISA). The settings on record: Homo sapiens, camptothecin 200 nM 16 hours, then test compound with nocodazole 8 hours, read-out: Cdc2-Y15 Phosphorylation-Inhibitory Effect (H1299, + camptothecin) (EC50). It counts as cell-based.
Source text: as §1, §2, §3, §4
In the method of using NCI-H1299 cells, the cells were suspended in RPMI1640 containing 10% FBS, and the cell suspension was applied to a 96-well Nunclondelta-processed plastic plate (bought from Nunc), in an amount of 2000 cells/100 μL/well, in which the cells were incubated overnight in 5% CO2-95% air at 37° C. Camptothecin was dissolved in dimethylsulfoxide (DMSO), and diluted with RPMI1640 containing 10% FBS, and then this was applied to the plate on which the cells had been previously sowed, in an amount of 50 μL/well in such a manner that the final concentration of camptothecin could be 200 nM. Then, the cells were incubated for 16 hours at 37° C. in 5% CO2-95% air. The test compound was stepwise diluted with DMSO, then diluted with 4000 nM nocodazole-containing RPMI1640 containing 10% FBS, and applied to the plate on which the camptothecin-treated cells had been sowed, in an amount of 50 μL/well. The cells were incubated for 8 hours at 37° C. in 5% CO2-95% air, then the medium was removed, and a cytolytic buffer was added to the plate in an amount of 100 μL/well, shaken at 4° C. for 2 hours, then frozen at −80° C., and melted to give a cell solution. Cdc2 and tyrosine 15-phosphorylated Cdc2 in the cell solution were determined through enzyme-linked immunosorbent assay (ELISA), and the ratio of tyrosine 15-phosphorylated Cdc2 to Cdc2 was calculated to obtain the 50% phosphorylation-inhibitory concentration of the test compound to the cells (EC50, nM). The cytolytic buffer used herein is an aqueous solution containing 20 mM Hepes (pH 7.5), 150 mM sodium chloride, 1 mM disodium ethylenediaminetetraacetate, 0.1% polyoxyethylene (10) octylphenyl ether, 1% protease inhibitor cocktail, 1 mM dithiothreitol, 2 mM sodium orthovanadate, 10 mM sodium fluoride and 10 mM glycerol diphosphate. Cdc2 was determined through ELISA as follows: A rabbit anti-Cdc2 antibody solution, which had been diluted 200-fold with 50 mM carbonate-bicarbonate buffer (pH 9.6), was applied to a 96-well maxisorpimmuno plate (bought from Nunc), in an amount of 50 μL/well, and statically kept overnight at 4° C. so as to fix the antibody on the plate. Next, this was washed three times with phosphate-buffered saline (PBS), and 5% bovine serum albumin-containing PBS (5% BSA/PBS) was added thereto in an amount of 300 μL/well, and statically kept at room temperature for 2 hours, and then again washed three times with PBS. A mouse anti-Cdc2 antibody solution that had been diluted 100-fold with 0.05% polyoxyethylene sorbitan monolaurate and 1% BSA-containing Tris-HCl-buffered saline (1% BSA/TBS-T) was added to it in an amount of 50 μL/well, and the cell solution was added thereto in an amount of 5 μL/well and statically kept overnight at 4° C. Next, this was washed three times with 0.05% polyoxyethylene sorbitan monolaurate and 0.1% BSA-containing Tris-HCl-buffered saline (0.1% BSA/TBS-T), and then a horseradish peroxidase-labeled anti-mouse IgG antibody solution that had been diluted 2000-fold with 1% BSA/TBS-T was added thereto in an amount of 70 μL/well, and statically kept at room temperature for 3 hours. […]

Drawing on patent publication US7935708B2, “Dihydropyrazolopyrimidinone derivatives” (MSD K.K., priority 2006, dated 2011), this text covers EC50 for 9 compounds.

For orientation: EC50 means the concentration giving half of the maximal effect. As for `C=CCn1c(=O)c2cnc(Nc3ccc(N4CCN(C)CC4)cc3)nc2n1-c1cccc(C(=O)N(C)C)c1` [Example 1, 3-(2-allyl-6-{[4-(4-methylpiperazin-1-yl)phenyl]amino}-3-oxo-1,2-dihydro-3H-pyrazolo[3,4-d]pyrimidin-1-yl)-N,N-dimethylbenzamide], the EC50 in test [1] is 143 nM; in test [2], 104 nM.
`C=CCn1c(=O)c2cnc(Nc3ccc(N4CCN(C)CC4)cc3)nc2n1-c1cccc(C(C)(C)O)c1` [Example 19, 2-allyl-1-[3-(1-hydroxy-1-methylethyl)phenyl]-6-{[4-(4-methylpiperazin-1-yl)phenyl]amino}-1,2-dihydro-3H-pyrazolo[3,4-d]pyrimidin-3-one]: the values for the EC50 in test [1] and in test [2] were 350 nM and 247 nM, respectively.
Regarding `C=CCn1c(=O)c2cnc(Nc3ccc(N4CCN(C)CC4)cc3)nc2n1-c1cccc(CN(C)C)c1` [Example 26, 2-allyl-1-[3-(dimethylaminomethyl)phenyl]-6-{[4-(4-methylpiperazin-1-yl)phenyl]amino}-1,2-dihydro-3H-pyrazolo[3,4-d]pyrimidin-3-one], the EC50 in test [2] is 114 nM.
Regarding `C=CCn1c(=O)c2cnc(Nc3ccc(N4CCN(C)CC4)c(CO)c3)nc2n1-c1ccccn1` [Example 29, 2-allyl-6-{[3-hydroxymethyl-4-(4-methylpiperazin-1-yl)phenyl]amino}-1-pyridin-2-yl-1,2-dihydro-3H-pyrazolo[3,4-d]pyrimidin-3-one], the EC50 in test [2] turned out to be 188 nM.
`C=CCn1c(=O)c2cnc(Nc3ccc(N4CCN(C)CC4)c(C)c3)nc2n1-c1cccc(CN(C)C)n1` [Example 52, 2-allyl-1-{6-[(dimethylamino)methyl]pyridin-2-yl}-6-{[3-methyl-4-(4-methylpiperazin-1-yl)phenyl]amino}-1,2-dihydro-3H-pyrazolo[3,4-d]pyrimidin-3-one]: in test [2], the EC50 amounted to 46 nM.
Consider `C=CCn1c(=O)c2cnc(Nc3ccc(N4CCN(C)CC4)c(C)c3)nc2n1-c1cccc(OCCO)n1` [Example 98, 2-allyl-1-[6-(2-hydroxyethoxy)pyridin-2-yl]-6-{[3-methyl-4-(4-methylpiperazin-1-yl)phenyl]amino}-1,2-dihydro-3H-pyrazolo[3,4-d]pyrimidin-3-one], for which the EC50 in test [1] was determined as 39 nM; in test [2], 83 nM.
For `C=CCn1c(=O)c2cnc(Nc3ccc(N4CCN(C)CC4)cc3)nc2n1-c1cccc(CN(C)S(C)(=O)=O)n1` [Example 99, N-{[6-(2-allyl-6-{[4-(4-methylpiperazin-1-yl)phenyl]amino}-3-oxo-1,2-dihydro-3H-pyrazolo[3,4-d]pyrimidin-1-yl)pyridin-2-yl]methyl}-N-methylmethanesulfonamide], the EC50 in test [1] is 122 nM; in test [2] it was 86 nM.
On to `Cc1cc(Nc2ncc3c(=O)n(Cc4ccccc4)n(-c4ccccc4)c3n2)ccc1N1CCN(C)CC1` [Example 111, 2-benzyl-6-{[3-methyl-4-(4-methylpiperazin-1-yl)phenyl]amino}-1-phenyl-1,2-dihydro-3H-pyrazolo[3,4-d]pyrimidin-3-one], for which the EC50 in test [2] came to 93 nM.
On to `C#CCn1c(=O)c2cnc(Nc3ccc(N4CCN(C)CC4)cc3)nc2n1-c1cccc(C(C)(C)O)n1` [Example 113, 1-[6-(1-hydroxy-1-methylethyl)pyridin-2-yl]-6-{[4-(4-methylpiperazin-1-yl)phenyl]amino}-2-(2-propynyl)-1,2-dihydro-3H-pyrazolo[3,4-d]pyrimidin-3-one], for which the EC50 in test [1] worked out at 8 nM.
